ChEMBL document CHEMBL5104144, “Exploring the roles of the Cdc2-like kinases in cancers” (Bioorg Med Chem, 2022)
Blank lines part the entries; values can stand above or below the compound they belong to.

Tests used:
[1] = target: T1, Dual specificity protein kinase CLK4 (Homo sapiens, UniProt Q9HAZ1); test: Inhibition of CLK4 (unknown origin) assessed as reduction in SRSF1 phosphorylation
[2] = target: T2, Dual specificity protein kinase CLK1 (Homo sapiens, UniProt P49759); test: Inhibition of CLK1 (unknown origin)
T2 sequence (P49759 whole entry): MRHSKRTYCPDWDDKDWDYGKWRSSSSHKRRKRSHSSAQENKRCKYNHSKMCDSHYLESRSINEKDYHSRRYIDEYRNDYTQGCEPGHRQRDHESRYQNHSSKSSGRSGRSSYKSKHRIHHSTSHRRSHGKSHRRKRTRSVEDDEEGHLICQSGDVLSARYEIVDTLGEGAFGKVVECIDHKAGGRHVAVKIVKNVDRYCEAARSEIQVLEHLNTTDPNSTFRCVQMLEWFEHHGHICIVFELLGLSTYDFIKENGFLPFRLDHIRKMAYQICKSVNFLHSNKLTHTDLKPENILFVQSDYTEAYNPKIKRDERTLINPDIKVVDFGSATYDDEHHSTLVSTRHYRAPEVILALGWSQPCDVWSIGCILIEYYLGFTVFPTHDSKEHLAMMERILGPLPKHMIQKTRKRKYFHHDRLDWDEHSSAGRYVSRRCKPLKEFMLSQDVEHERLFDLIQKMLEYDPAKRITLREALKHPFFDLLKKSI

[3] = target: T2, Dual specificity protein kinase CLK1; test: Inhibition of CLK1 (unknown origin) assessed as reduction in SRSF10 phosphorylation
[4] = target: T1, Dual specificity protein kinase CLK4; test: Inhibition of CLK4 (unknown origin)
[5] = target: T1, Dual specificity protein kinase CLK4; test: Inhibition of CLK4 (unknown origin) assessed as reduction in SRSF10 phosphorylation
[6] = Inhibition of GST-tagged recombinant mouse CLK2 expressed in Escherichia coli using RSPSYGRSRSRSRSRSRSRSRSNSRSRSY as substrate in presence of [gamma-32P]ATP by a liquid scintillation counter method
[7] = Inhibition of GST-tagged recombinant mouse CLK1/STY expressed in Escherichia coli using RSPSYGRSRSRSRSRSRSRSRSNSRSRSY as substrate in presence of [gamma-32P]ATP by a liquid scintillation counter method
[8] = target: T1, Dual specificity protein kinase CLK4; test: Inhibition of human CLK4 (146 to 480 residues) expressed in Escherichia coli BL21 (DE3) Turner using MBP as substrate incubated for 60 mins in presence of [gamma-32P]ATP by radiometric kinase assay

T1 sequence (Q9HAZ1 whole entry): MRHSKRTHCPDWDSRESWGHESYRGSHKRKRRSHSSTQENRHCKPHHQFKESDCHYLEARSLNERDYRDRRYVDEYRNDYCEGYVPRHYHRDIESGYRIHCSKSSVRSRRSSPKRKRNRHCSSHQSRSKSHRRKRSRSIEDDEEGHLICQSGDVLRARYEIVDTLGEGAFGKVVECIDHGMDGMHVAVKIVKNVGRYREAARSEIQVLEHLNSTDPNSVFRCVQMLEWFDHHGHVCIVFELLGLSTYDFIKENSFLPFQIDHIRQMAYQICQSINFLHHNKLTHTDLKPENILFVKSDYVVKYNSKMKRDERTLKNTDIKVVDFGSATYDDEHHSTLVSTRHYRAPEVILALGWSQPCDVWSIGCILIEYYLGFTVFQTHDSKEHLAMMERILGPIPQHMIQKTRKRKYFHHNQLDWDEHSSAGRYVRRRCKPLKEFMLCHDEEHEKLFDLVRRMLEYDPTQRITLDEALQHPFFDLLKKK

- IC50 [1]: 24 nM
- IC50 [2]: 44 nM
- IC50 [3]: 44 nM
- IC50 [4]: 14 nM
- IC50 [5]: 14 nM
SMILES: O=C(Nc1ccc2[nH]cnc2c1)c1csc(Nc2ccccc2)n1

SMILES: CCN1/C(=C/C(C)=O)Sc2ccc(OC)cc21
- IC50 [6]: 200 nM
- IC50 [7]: 20 nM

- IC50 [8]: 11 nM
SMILES: O=C(O)c1ccc2c(c1)nc(Nc1cccc(Cl)c1)c1ccncc12 [SILMITASERTIB]
